The record followed here is US20220177446A1, “ALKYNE COMPOUNDS AS IRAK INHIBITORS, PREPARATION METHODS AND MEDICINAL USES THEREOF” (Eternity Bioscience Inc., priority 2020, published 2022).

Assay [1] concerns the target T1, full length human IRAK4 protein (Homo sapiens, UniProt Q9NWZ3).
T1 construct: Purified full length human IRAK4 protein; purchased Signal Chem I12-10G-125
T1 sequence (Q9NWZ3 1-460): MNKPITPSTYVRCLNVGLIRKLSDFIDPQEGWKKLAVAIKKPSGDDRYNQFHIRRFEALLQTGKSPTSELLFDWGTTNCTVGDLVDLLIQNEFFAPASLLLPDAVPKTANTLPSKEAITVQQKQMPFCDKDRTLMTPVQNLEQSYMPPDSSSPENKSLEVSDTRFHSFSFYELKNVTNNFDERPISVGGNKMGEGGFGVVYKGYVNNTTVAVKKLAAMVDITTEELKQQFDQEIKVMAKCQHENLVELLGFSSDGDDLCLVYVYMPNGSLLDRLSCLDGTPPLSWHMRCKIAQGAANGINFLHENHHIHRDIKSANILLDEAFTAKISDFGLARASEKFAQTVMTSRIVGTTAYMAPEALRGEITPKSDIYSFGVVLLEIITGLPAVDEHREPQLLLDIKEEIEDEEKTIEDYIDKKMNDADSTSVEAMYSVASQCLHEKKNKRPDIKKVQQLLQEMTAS
The assay can be described thus: IRAK4 Biochemical Assay (Promega ADP-Glo IRAK4 Kinase Enzyme System). Conditions: 3 nM enzyme, 250 μM ATP; for IC50: 2 μM MBP, 60 min at room temperature; for IRAK4 Biochemical Assay Max Inhibition (%): maximum inhibition. How it is done:
For the routine compound screening, an IRAK4 kinase assay was performed as follows using Promega ADP-Glo IRAK4 Kinase Enzyme System (Promega, Cat #2198-AD). Purified full length human IRAK4 protein (Signal Chem; Cat #I12-10G-125) was diluted to a concentration 6 nM in assay buffer (25 mM MOPS, pH 7.2, 12.5 mM β-glycerol-phosphate, 25 mM MgCl2, 5 mM EGTA, 2 mM EDTA, 0.0025% Brij-35, add 0.25 mM DTT to Kinase Assay Buffer prior to use) containing IRAK4 inhibitor at 2× the final concentration in 0.4% DMSO. The reaction was performed in PerkinElmer Proxiplate-384 plus white plate (Fisher Scientific, Cat #50-905-2761) and started by the addition of an equal volume of the assay buffer containing 4 μM native swine myelin basic protein (MBP) and 500 μM ATP to achieve a final concentration of 3 nM enzyme, 2 μM MBP, 250 μM ATP, 1× compound, and 0.2% DMSO. The kinase reaction was allowed to run for 60 min at room temperature (25-27° C.), then 5 μL of ADP-Glo was added to the reaction in each well followed by 40 minutes-incubation at RT. To detect converted […], 10 μL Detection Buffer was added into each well and Incubate at RT in dark for 30 minutes. Finally, luminescence was read using Tecan with 1000 ms of integration time. The luminescent signal positively correlates with ADP amount and kinase activity. Data was analyzed by GraphPad Prism and IC50 was calculated using function log(inhibitor) vs. response—Variable slope (four parameters). Percentage of inhibition was calculated as below:
(§1) % inhibition=(1−(Reading(Sample)−Reading(Negative Control))/(Reading(Positive Control)−Reading(Negative Control)))×100%
The 0% inhibition value comes from the Reading of Positive Control wells having 0 nM compound. The 100% inhibition value comes from the Reading of Negative Control wells having no IRAK4 kinase.
In general terms: ADP-Glo turns the ADP formed in a reaction into a luminescent signal.

In another assay the target is T2, IRAK4 (Homo sapiens, UniProt Q9NWZ3).
T2 construct: host or cells: human peripheral blood mononuclear cells (PBMCs)
T2 sequence (Q9NWZ3 1-460): T1 sequence (Q9NWZ3 1-460)
The assay can be described thus: IRAK4 Human PBMC TNFα Cell Based Assay (AlphaLISA). Conditions: TNFα measured. As to the method:
In this assay, serially diluted compounds were incubated with 1×10^4 human peripheral blood mononuclear cells (PBMCs) from STEMCELL (Cat #70025.1) per well of 384-well plate (Fisher Scientific; 50-905-2761) and cultured with TexMACS medium (Miltenyi, Cat #130-097-196), stimulated by R848 (0.5 μM) or IL-1β (10 ng/ml). Plates were covered with lids and incubated for 4 h (R848, Fisher Scientific, Cat #NC9801605) or 24 h (IL-1β, Fisher Scientific, Cat #ENRIL1BI) at 37° C. in a humidified tissue-culture incubator. After a brief centrifugation at 1000 rpm for 5 minutes, 5 μl of culture medium was used for the measurement of the TNFα amount using TNFα (human) AlphaLISA Detection Kit (PerkinElmer, Cat #AL208C) according to manufacturer's protocol. A biotinylated anti-TNFα antibody binds to the Streptavidin-coated Donor beads while another anti-TNFα antibody is conjugated to AlphaLISA Acceptor beads. In the presence of the TNFα, the beads come into close proximity. The excitation of the Donor beads causes the release of singlet oxygen molecules that triggers a cascade of energy transfer in the Acceptor beads, resulting in a sharp peak of light emission at 615 nm. AlphaLISA assay plates were read using PHERAstar. Percentage of inhibition was calculated as below:
as §1
The 0% inhibition value comes from the Reading of Positive Control wells having 0 nM compound. The 100% inhibition value comes from the Reading of Negative Control wells having no R848 or IL-1β.
A general note: In Alpha technology, singlet oxygen from a donor bead excites a nearby acceptor bead.

The mark [2] stands for this setting: human PBMCs stimulated by IL-1β (10 ng/ml), 24 h, read-out: IRAK4 PBMC AlphaLISA IL-1β (IC50).
Setting [3] is: human PBMCs stimulated by R848 (0.5 μM), 4 h, read-out: IRAK4 PBMC AlphaLISA R848 (IC50).

Like-named read-outs stand apart in the source and are kept apart here.

Turning to `CC[C@@H]1[C@H](F)C(=O)N[C@@H]1COc1ncc(C#Cc2nnn(C)n2)c2cc(C(N)=O)c(OC)cc12` [Example 21, 1-(((2S,3S,4S)-3-ethyl-4-fluoro-5-oxopyrrolidin-2-yl)methoxy)-7-methoxy-4-((2-methyl-2H-tetrazol-5-yl)ethynyl)isoquinoline-6-carboxamide], the IC50 in assay [1] is 22 nM; on IRAK4 (setting [2]) it was 4.6 nM; on IRAK4 (setting [3]), 3.1 nM. The “IRAK4 Biochemical Assay Max Inhibition (%)” value in assay [1] is on record as 98.0%.
With `CC[C@@H]1[C@H](F)C(=O)N[C@@H]1COc1ncc(C#C[C@H](C)O)c2cc(C(N)=O)c(OC)cc12` [Example 18, 1-(((2S,3S,4S)-3-ethyl-4-fluoro-5-oxopyrrolidin-2-yl)methoxy)-4-((S)-3-hydroxybut-1-yn-1-yl)-7-methoxyisoquinoline-6-carboxamide], the IC50 in assay [1] came to 27.5 nM; on IRAK4 (setting [2]) it was 1.7 nM; at IRAK4 (setting [3]) it was 2.5 nM. Also, the “IRAK4 Biochemical Assay Max Inhibition (%)” value in assay [1] was 95.0%.
For `CC[C@@H]1[C@H](F)C(=O)N[C@@H]1COc1ncc(C#CC(=O)N(C)C)c2cc(C(N)=O)c(OC)cc12` [Example 11, 4-(3-(dimethylamino)-3-oxoprop-1-yn-1-yl)-1-(((2S,3S,4S)-3-ethyl-4-fluoro-5-oxopyrrolidin-2-yl)methoxy)-7-methoxyisoquinoline-6-carboxamide], the 50% inhibitory concentration (IC50) is 10 nM in assay [1], 1 nM at IRAK4 (setting [2]) and 0.7 nM at IRAK4 (setting [3]). Moreover, the “IRAK4 Biochemical Assay Max Inhibition (%)” value in assay [1] is on record as 95.0%.
For `CC[C@@H]1[C@H](F)C(=O)N[C@@H]1COc1ncc(C#Cc2cnccn2)c2cc(C(N)=O)c(OC)cc12` [Example 13, 1-(((2S,3S,4S)-3-ethyl-4-fluoro-5-oxopyrrolidin-2-yl)methoxy)-7-methoxy-4-(pyrazin-2-ylethynyl)isoquinoline-6-carboxamide], in that order: 18 nM, 1.3 nM, 1.6 nM and 95.0%.
Regarding `CC[C@@H]1[C@H](F)C(=O)N[C@@H]1COc1ccc(C#CCN(C)C)c2cc(C(N)=O)c(OC)cc12` [Example 15, 8-(3-(dimethylamino)prop-1-yn-1-yl)-5-(((2S,3S,4S)-3-ethyl-4-fluoro-5-oxopyrrolidin-2-yl)methoxy)-3-methoxy-2-naphthamide], the IC50 is 12 nM in assay [1], 1.3 nM on IRAK4 (setting [2]) and 1.7 nM on IRAK4 (setting [3]). Moreover, in assay [1], the “IRAK4 Biochemical Assay Max Inhibition (%)” value is given as 101.0%.
With `CC[C@@H]1[C@H](F)C(=O)N[C@@H]1COc1ncc(C#Cc2cccnc2)c2cc(C(N)=O)c(OC)cc12` [Example 14, 1-(((2S,3S,4S)-3-ethyl-4-fluoro-5-oxopyrrolidin-2-yl)methoxy)-7-methoxy-4-(pyridin-3-ylethynyl)isoquinoline-6-carboxamide], the IC50 in assay [1] was determined as 29 nM; on IRAK4 (setting [2]) it was 1.3 nM; at IRAK4 (setting [3]), 1.6 nM. Further, in assay [1], the “IRAK4 Biochemical Assay Max Inhibition (%)” value is on record as 100.0%.
On to `CC[C@@H]1[C@H](F)C(=O)N[C@@H]1COc1ncc(C#CC(C)(C)N(C)C)c2cc(C(N)=O)c(OC)cc12` [Example 34, 4-(3-(dimethylamino)-3-methylbut-1-yn-1-yl)-1-(((2S,3S,4S)-3-ethyl-4-fluoro-5-oxopyrrolidin-2-yl)methoxy)-7-methoxyisoquinoline-6-carboxamide], for which the half-maximal inhibitory concentration (IC50) in assay [1] amounted to 8.9 nM; on IRAK4 (setting [2]), 46 nM; on IRAK4 (setting [3]) it was 32 nM. Moreover, the “IRAK4 Biochemical Assay Max Inhibition (%)” value in assay [1] is listed as 92.0%.
With `COc1cc2c(OC[C@@H]3CCC(=O)N3)ncc(C#CCN(C)C)c2cc1C(N)=O` [Example 8, (S)-4-(3-(dimethylamino)prop-1-yn-1-yl)-7-methoxy-1-((5-oxopyrrolidin-2-yl)methoxy)isoquinoline-6-carboxamide], the figures for the IC50 (in assay [1]; at IRAK4 (setting [2]); on IRAK4 (setting [3])) were 7.5 nM, 128 nM and 175 nM, respectively. For the same compound, in assay [1], the “IRAK4 Biochemical Assay Max Inhibition (%)” value amounted to 97.0%.
The like results for `COCC#Cc1cnc(OC[C@@H]2CCC(=O)N2)c2cc(OC)c(C(N)=O)cc12` [Example 9, (S)-7-methoxy-4-(3-methoxyprop-1-yn-1-yl)-1-((5-oxopyrrolidin-2-yl)methoxy)isoquinoline-6-carboxamide] were, in that order, 14 nM, 110 nM, 140 nM and 100.0%.
Regarding `CC[C@@H]1[C@H](F)C(=O)N[C@@H]1COc1ncc(C#Cc2ccncc2)c2cc(C(N)=O)c(OC)cc12` [Example 22, 1-(((2S,3S,4S)-3-ethyl-4-fluoro-5-oxopyrrolidin-2-yl)methoxy)-7-methoxy-4-(pyridin-4-ylethynyl)isoquinoline-6-carboxamide], the results for the IC50 (in assay [1]; at IRAK4 (setting [2]); on IRAK4 (setting [3])) were 23 nM, 0.8 nM and 3.4 nM, respectively. The “IRAK4 Biochemical Assay Max Inhibition (%)” value in assay [1] is 100.0%.
The like results for `CC[C@@H]1[C@H](F)C(=O)N[C@@H]1COc1ncc(C#CC(C)(C)N)c2cc(C(N)=O)c(OC)cc12` [Example 2, 4-(3-amino-3-methylbut-1-yn-1-yl)-1-(((2S,3S,4S)-3-ethyl-4-fluoro-5-oxopyrrolidin-2-yl)methoxy)-7-methoxyisoquinoline-6-carboxamide] were, in that order, 63 nM, 25 nM, 16 nM and 100.0%.
As to `CC[C@@H]1[C@H](F)C(=O)N[C@@H]1COc1ncc(C#C[C@@H](C)O)c2cc(C(N)=O)c(OC)cc12` [Example 19, 1-(((2S,3S,4S)-3-ethyl-4-fluoro-5-oxopyrrolidin-2-yl)methoxy)-4-((R)-3-hydroxybut-1-yn-1-yl)-7-methoxyisoquinoline-6-carboxamide], the figures for the IC50 (in assay [1]; on IRAK4 (setting [2]); at IRAK4 (setting [3])) were 13 nM, 1.3 nM and 3 nM, respectively. The “IRAK4 Biochemical Assay Max Inhibition (%)” value in assay [1] is recorded as 100.0%.
The like results for `CC[C@@H]1[C@H](F)C(=O)N[C@@H]1COc1ccc(C#CC(C)(C)N(C)C)c2cc(C(N)=O)c(OC)cc12` [Example 33, 8-(3-(dimethylamino)-3-methylbut-1-yn-1-yl)-5-(((2S,3S,4S)-3-ethyl-4-fluoro-5-oxopyrrolidin-2-yl)methoxy)-3-methoxy-2-naphthamide] were, in that order, 13 nM, 41 nM, 25 nM and 99.0%.

In general, IC50 refers to the concentration needed to halve the response being measured.
